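Dose response: 5 concentrations. Exposure: 48 h. Format: 96-well plates. Endpoint: linear interpolation; highest concentration if not reached. TGI marks complete inhibition of growth.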
Legend:
Experiment in all cases: NCI-60 cell line screen, 48 h
[1] = test system: KM12 colon
[2] = test system: SF-268 CNS
[3] = test system: K-562 leukemia
[4] = test system: SK-OV-3 ovarian
[5] = test system: UACC-62 melanoma
[6] = test system: MALME-3M melanoma
[7] = test system: A549 NSCLC
[8] = test system: LOX IMVI melanoma
[9] = test system: SR leukemia
[10] = test system: SK-MEL-28 melanoma

| SMILES | TGI [1] | TGI [2] | TGI [3] | TGI [4] | TGI [5] | TGI [6] | TGI [7] | TGI [8] | TGI [9] | TGI [10] |
| --- | --- | --- | --- | --- | --- | --- | --- | --- | --- | --- |
| Cn1c(=O)n2n(c1=O)Cc1cccc3cccc(c13)C2 | > 100 µM | > 100 µM | > 100 µM | > 100 µM | > 100 µM | > 100 µM | > 100 µM | > 100 µM | > 100 µM | > 100 µM |
| S=C(NNC1=NCCCN1)Nc1ccccc1 | > 100 µM | > 100 µM | > 100 µM | > 100 µM | > 100 µM | > 100 µM | > 100 µM | > 100 µM | > 100 µM | > 100 µM |
| CC(=O)Nc1ccc(Nc2cc(=O)n(C)c(=O)[nH]2)cc1 | > 100 µM | > 100 µM | > 100 µM | > 100 µM | > 100 µM | > 100 µM | > 100 µM | > 100 µM | > 100 µM | > 100 µM |
| Cc1ccc(-c2sc(-c3ccc(C)cc3)c3c2C2CCC3C2)cc1 | > 50 µM | > 50 µM | > 50 µM | > 50 µM | > 50 µM | > 50 µM | > 50 µM | > 50 µM | > 50 µM | > 50 µM |
